Measured values as given in PubChem BioAssay (NCI).
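Cultured in 96-well plates, cells were exposed to test compound for 48 hours across five concentrations. TGI: total growth inhibition.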

Legend:
Experiment in all cases: DTP human tumour cell line panel, 48 h
[1] = test system: 786-0 renal
[2] = test system: A498 renal
[3] = test system: A549 NSCLC
[4] = test system: ACHN renal
[5] = test system: CAKI-1 renal
[6] = test system: CCRF-CEM leukemia
[7] = test system: COLO 205 colon
[8] = test system: DLD-1 colon
[9] = test system: DMS 114 small cell lung
[10] = test system: EKVX NSCLC
[11] = test system: HCC-2998 colon
[12] = test system: HCT-116 colon
[13] = test system: HCT-15 colon
[14] = test system: HL-60(TB) leukemia
[15] = test system: HOP-18 NSCLC
[16] = test system: HOP-62 NSCLC
[17] = test system: HOP-92 NSCLC
[18] = test system: HT29 colon
[19] = test system: IGROV1 ovarian
[20] = test system: K-562 leukemia
[21] = test system: KM12 colon
[22] = test system: KM20L2 colon
[23] = test system: LOX IMVI melanoma
[24] = test system: LXFL 529 NSCLC
[25] = test system: M14 melanoma
[26] = test system: M19-MEL melanoma
[27] = test system: MALME-3M melanoma
[28] = test system: MOLT-4 leukemia
[29] = test system: NCI-H226 lung
[30] = test system: NCI-H23 lung
[31] = test system: NCI-H460 lung
[32] = test system: OVCAR-3 ovarian
[33] = test system: OVCAR-4 ovarian
[34] = test system: OVCAR-5 ovarian
[35] = test system: OVCAR-8 ovarian
[36] = test system: RPMI-8226 leukemia
[37] = test system: RXF 393 renal
[38] = test system: RXF-631 renal
[39] = test system: SF-268 CNS
[40] = test system: SF-295 CNS
[41] = test system: SF-539 CNS
[42] = test system: SK-MEL-2 melanoma
[43] = test system: SK-MEL-28 melanoma
[44] = test system: SK-MEL-5 melanoma
[45] = test system: SK-OV-3 ovarian
[46] = test system: SN12C renal
[47] = test system: SNB-75 CNS
[48] = test system: SNB-78 CNS
[49] = test system: SR leukemia
[50] = test system: SW-620 colon
[51] = test system: TK-10 renal
[52] = test system: U251 CNS
[53] = test system: UACC-257 melanoma
[54] = test system: UACC-62 melanoma
[55] = test system: UO-31 renal
[56] = test system: XF 498 CNS
[57] = test system: DMS 273 small cell lung
[58] = test system: NCI-H522 lung
[59] = test system: SNB-19 CNS

Measured: TGI

O=C1OCC2C1C1c3ccccc3C(O)c3ccccc3C21 (stereo not given)
not listed: [57] | [58] | [59]
> 100 µM: all other assays above

CC(C)N(C(=O)C12C3C4C1(I)C1C2C3(I)C41C(=O)N(C(C)C)C(C)C)C(C)C (stereo not given)
> 72.5 µM: [36]
> 63.6 µM: [20]
> 61.3 µM: [14]
> 60.5 µM: [23]
> 64.4 µM: [1]
> 59.8 µM: [13]
> 62.5 µM: [21]
> 70.9 µM: [26]
> 61.2 µM: [6]
> 59.6 µM: [41] | [50]
not listed: [9] | [48] | [49]
> 100 µM: all other assays above

CN[C@@H](C)[C@@H](NC)c1ccccc1
2.9 µM: [52]
not listed: [14] | [16] | [22] | [27] | [33] | [34] | [39] | [42] | [49] | [56] | [59]
> 100 µM: all other assays above
